Target: tau4RD (Homo sapiens, UniProt P10636)
Assay: Unseeded heparin-induced tau4RD aggregation, thioflavin T fluorescence
Assay type: biochemical
Conditions: 1:2 protein:compound molar ratio; ThT fluorescence

tau4RD, sequence (P10636 561-685 limits assumed): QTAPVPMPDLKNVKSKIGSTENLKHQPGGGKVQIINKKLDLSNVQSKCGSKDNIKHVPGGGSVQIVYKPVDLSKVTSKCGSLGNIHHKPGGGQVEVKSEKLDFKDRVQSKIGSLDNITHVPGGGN

## O=C1c2ccccc2-n2c1nc1ccccc1c2=O [compound 1, tryptanthrin]
  Inhibition of heparin-induced tau4RD aggregation in initial screen (in words): among the most potent inhibitors
